According to US20100267712A1, “ISOINDOLINE COMPOUNDS FOR THE TREATMENT OF SPINAL MUSCULAR ATROPHY AND OTHER USES” (The United States of America, as represented by the …, priority 2007, published 2010):

system: SMN2-linked luciferase-reporter gene construct; test: SMN Splice Reporter Assay (SMN2-linked luciferase reporter); format: cell-based; conditions: cervical carcinoma cell lines, SMN2 splice luciferase reporter
How it was run: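 Cervical carcinoma cells carrying an SMN2-luciferase splicing reporter, in-frame only with exon 7 inclusion, were treated with compound. Luciferase activity reported as fold increase over untreated transformed cells, with EC50 derived.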

Row | EC50 | Compound
1 | 0.087 µM | Cc1ccc2c(c1)C(=O)N(c1ccc3ccsc3c1)C2 [Example 122555]
2 | 0.421 µM | COc1ccc2c(c1)C(=O)N(c1ccc3nc[nH]c3c1)C2 [Example 119866]
3 | 0.003 µM | CC(C)Oc1ccc2c(c1)C(=O)N(c1ccc3cc[nH]c3c1)C2 [Example 125095]
4 | 0.131 µM | Cn1ccc2cc(N3Cc4cc(Cl)ccc4C3=O)ccc21 [Example 120778]
5 | 0.225 µM | O=C1c2cc(Br)ccc2CN1c1ccc2ncccc2c1 [Example 124033]
6 | 0.065 µM | Cn1ccc2cc(N3Cc4cc(F)ccc4C3=O)ccc21 [Example 122316]
7 | 0.862 µM | Cn1ccc2cc(N3Cc4ccc(C(F)(F)F)cc4C3=O)ccc21 [Example 122037]
8 | 0.373 µM | Cn1ccc2ccc(N3Cc4ccc(-c5ccccc5)cc4C3=O)cc21 [Example 120949]
9 | 1.59 µM | Cn1ccc2ccc(N3Cc4ccc(N)cc4C3=O)cc21 [Example 121256]
10 | 5.95 µM | COc1ccc2c(c1)C(=O)N(c1ccc3c(c1)N(C)CCN3C)C2 [Example 122436]
11 | 0.203 µM | CN1CCCc2cc(N3Cc4ccc(OC(F)F)cc4C3=O)ccc21 [Example 122319]
12 | 0.047 µM | COc1ccc2c(c1)C(=O)N(c1ccc3ccc(Cl)nc3c1)C2 [Example 123710]
13 | 0.609 µM | Cn1ccc2ccc(N3Cc4c(Br)cccc4C3=O)cc21 [Example 120290]
14 | 0.045 µM | CC=Cc1ccc2c(c1)C(=O)N(c1ccc3c(ccn3C)c1)C2 [Example 119520]
15 | 0.037 µM | COc1ccc2c(c1)C(=O)N(c1ccc3cccnc3c1)C2 [Example 122821]
16 | 0.336 µM | COc1ccc2c(c1)C(=O)N(c1ccc3ncoc3c1)C2 [Example 121262]

same assay, conditions: fold-increase of luciferase over baseline reading of transformed cells without any test compound

Row | Compound | Fold Increase
17 | Cc1cc2cc(N3Cc4ccc(N5CCCC5)cc4C3=O)ccc2n1C [Example 123330] | 1.113
18 | COc1ccc2c(c1)C(=O)N(c1ccc3[nH]ncc3c1)C2 [Example 120601] | 1.059
19 | CC(C)n1ccc2cc(N3Cc4ccc(OC(F)F)cc4C3=O)ccc21 [Example 121259] | 1.166
20 | Cn1ccc2cc(N3Cc4ccc(NS(C)(=O)=O)cc4C3=O)ccc21 [Example 124980] | 1.534
21 | COc1ccc2c(c1)C(=O)N(c1ccc3c(c1)cc(CN(C)C)n3C)C2 [Example 124772] | 1.148
22 | CCCOc1ccc2c(c1)C(=O)N(c1ccc3sccc3c1)C2 [Example 122551] | 1.235
23 | COc1ccc2c(c1)C(=O)N(c1ccc3ccn(CCN)c3c1)C2 [Example 121080] | 1.163
24 | COc1ccc2c(c1)C(=O)N(c1ccc3nccc(O)c3c1)C2 [Example 121645] | 1.093
25 | COc1ccc2c(c1)C(=O)N(c1ccc3c(c1)CC(=O)N3)C2 [Example 121077] | 1.107
26 | Cc1cc2ccc(N3Cc4ccc(-c5cccnc5)cc4C3=O)cc2n1C [Example 125093] | 1.082
27 | COc1ccc2c(c1)C(=O)N(c1ccc3c(c1)NC(=O)CO3)C2 [Example 119516] | 1.182
28 | Cn1ccc2cc(N3Cc4ccc(N5CCOCC5)cc4C3=O)ccc21 [Example 123587] | 1.256
29 | Cc1ccc2c(c1)C(=O)N(c1ccc3ccsc3c1)C2 [Example 122555] | 1.509
30 | COc1ccc2c(c1)C(=O)N(c1ccc3nc[nH]c3c1)C2 [Example 119866] | 1.313
31 | CC(C)Oc1ccc2c(c1)C(=O)N(c1ccc3cc[nH]c3c1)C2 [Example 125095] | 1.134
32 | Cn1ccc2cc(N3Cc4cc(Cl)ccc4C3=O)ccc21 [Example 120778] | 1.492
33 | CC(=O)Nc1cccc2c1CN(c1ccc3ccn(C)c3c1)C2=O [Example 121075] | 1.087

Row | Compound | Fold Increase
34 | O=C1c2cc(Br)ccc2CN1c1ccc2ncccc2c1 [Example 124033] | 1.795
35 | Cn1ccc2ccc(N3Cc4ccc(NC=O)cc4C3=O)cc21 [Example 124981] | 1.638
36 | Cn1ccc2cc(N3Cc4cc(F)ccc4C3=O)ccc21 [Example 122316] | 1.401
37 | Cn1ccc2cc(N3Cc4ccc(C(F)(F)F)cc4C3=O)ccc21 [Example 122037] | 1.406
38 | Cn1ccc2ccc(N3Cc4ccc(-c5ccccc5)cc4C3=O)cc21 [Example 120949] | 1.816
39 | Cn1ccc2ccc(N3Cc4ccc(N)cc4C3=O)cc21 [Example 121256] | 1.638
40 | COc1ccc2c(c1)C(=O)N(c1ccc3c(c1)N(C)CCN3C)C2 [Example 122436] | 1.354
41 | CN1CCCc2cc(N3Cc4ccc(OC(F)F)cc4C3=O)ccc21 [Example 122319] | 1.97
42 | COc1ccc2c(c1)C(=O)N(c1ccc3ccc(Cl)nc3c1)C2 [Example 123710] | 1.327
43 | Cn1ccc2cc(N3Cc4ccc(NC(=O)c5ccccc5)cc4C3=O)ccc21 [Example 124862] | 1.07
44 | COc1cccc2c1C(=O)N(c1ccc3ccn(C)c3c1)C2 [Example 120124] | 1.17
45 | Cn1ccc2ccc(N3Cc4c(Cl)cccc4C3=O)cc21 [Example 120788] | 1.25
46 | Cn1ccc2ccc(N3Cc4c(Br)cccc4C3=O)cc21 [Example 120290] | 1.386
47 | CC=Cc1ccc2c(c1)C(=O)N(c1ccc3c(ccn3C)c1)C2 [Example 119520] | 1.54
48 | COc1ccc2c(c1)C(=O)N(c1ccc3cccnc3c1)C2 [Example 122821] | 1.401
49 | COc1ccc2c(c1)C(=O)N(c1ccc3ncoc3c1)C2 [Example 121262] | 1.317

system: translational stop codon read-through, human SMN2 open reading frame-luciferase; test: Translational read-through luciferase reporter assay (luciferase preceded by the open reading frame of the human SMN2 gene); format: cell-based; conditions: not given
Description: This assay was similar in design to that described in WO 01/44516 A2. This was a cell-based luciferase reporter assay designed to detect translational read-through via insertion of a translational stop codon within the coding sequence that includes luciferase. In the presence of compounds that promote read-through of translational stop codons, active luciferase was produced and detected via chemiluminescence. Compounds of the invention typically were active in three versions of this assay: luciferase reporter containing a UGA stop codon, luciferase reporter containing a UAG stop codon, which is the first stop codon downstream of the improper splice junction between exons 6 and 8 in the human SMN2 transcript, and luciferase preceded by the open reading frame of the human SMN2 gene.

Row | EC50 | Compound | maximal fold induction
50 | – | Cc1cc2cc(N3Cc4ccc(N5CCCC5)cc4C3=O)ccc2n1C [Example 123330] | 1.4
51 | 15.6 µM | COc1ccc2c(c1)C(=O)N(c1ccc3[nH]ncc3c1)C2 [Example 120601] | 1.65
52 | 0.032 µM | CC(C)n1ccc2cc(N3Cc4ccc(OC(F)F)cc4C3=O)ccc21 [Example 121259] | 1.03
